The record followed here is PMC5439065, “Effect of Naringenin, Quercetin, and Sesamin on Xenobiotica-Metabolizing CYP1A and CYP3A in Mice Offspring after Maternal Exposure to Persistent Organic Pollutants” (BioMed Research International, 2017).

The subject of data set [1] is CYP1A (CYP1A1 and CYP1A2). The experiment in a line: In vitro inhibition of EROD (7-ethoxyresorufin O-dealkylase) activity in hepatic microsomes. The conditions noted are these: CD-1, mouse, liver microsomes, pH 7.4, probe 7-ethoxyresorufin (1 µM), IC50, CYP1A (EROD), geometric mean (confidence interval), 1 μM 7-ethoxyresorufin. The procedure:
(§1) Liver samples were taken immediately after necropsy, frozen in ethanol and dry ice, and stored at −80°C until use. The microsomal fractions were prepared using a calcium aggregation method. Microsomal protein concentration was determined with a commercially available kit (Bio-Rad laboratories Inc., Hercules, CA, USA) according to the manufacturer's instructions.
(§2) In mice, O-dealkylation of 7-ethoxyresorufin is catalyzed by CYP1A1 and CYP1A2 [15], and O-dealkylation of 7-benzyloxyresorufin by CYP3A11 enzyme. The activities of CYP1A and CYP3A were determined as a rate of ethoxy- (EROD) and benzyloxy- (BROD) resorufin O-dealkylation, respectively. Incubation mixtures contained microsomal protein (0.2 mg), phosphate buffer (pH 7.4, 50 mM), and appropriate substrate (1 μM of 7-ethoxyresorufin or 2 μM of 7-benzyloxyresorufin). Reactions were initiated by the addition of 0.5 mM NADPH. The reaction mixture, in a final volume of 500 μL, was incubated in a water bath at 37°C for 5 min (EROD) or 7 min (BROD), and afterwards the reactions were terminated with ice-cold methanol (500 μL), followed by centrifugation at 7,500 ×g. Resorufin concentrations were measured as previously described. EROD and BROD activities were expressed as pmol of resorufin per milligram protein and minute.
(§3) EROD and BROD activities were initially evaluated in the presence of quercetin, naringenin, and sesamin at nine concentrations from 5 to 100000 nM. To examine the inhibition mode, the activities were determined in the presence of 2 or 3 inhibitor concentrations over the substrate concentration ranges 0.005 to 4.0 μM for EROD and 0.05 to 8 μM for BROD, respectively. The stock solutions of quercetin, naringenin, and sesamin were prepared in DMSO and added to incubations to yield final concentrations of 5, 10, 50, 100, 500, 1000, 2000, […], and 100000 nM. The final DMSO content in the incubations was 0.5%. The control incubations contained the same concentration of DMSO.
(§4) Comparison of enzymatic activities in the absence of the inhibitors between studied groups was performed on logarithmically transformed values using a mixed model with fixed effect of treatment (SAS version 9.3, SAS Institute Inc., Cary, NC, USA). The IC50 (concentration causing 50% reduction of control activity) and Ki values for inhibitors were calculated by nonlinear regression analysis using GraphPad prism version 4.0 for Windows (GraphPad, San Diego, CA, USA). Comparisons of IC50 and Ki values between the studied groups were performed on logarithmically transformed values using one-way analysis of variance, followed by the Tukey multiple-comparisons test. Differences were regarded as significant when P < 0.05.
A general note: Liver microsomes are vesicles of endoplasmic reticulum, rich in cytochrome P450 enzymes.

The test system of another data set is CYP1A. The description is as above. The settings on record: for Ki at 5 min: CD-1, mouse, liver microsomes, pH 7.4, probe 7-ethoxyresorufin (0.005 to 4.0 µM); for Inhibition of EROD activity: all exposure groups, concentrations 5 to 100000 nM. The procedure: as §1, §2, §3, §4
The target of a further data set is T1, CYP3A (CYP3A11) (Mus musculus, UniProt Q64459).
T1 sequence (Q64459 1-504): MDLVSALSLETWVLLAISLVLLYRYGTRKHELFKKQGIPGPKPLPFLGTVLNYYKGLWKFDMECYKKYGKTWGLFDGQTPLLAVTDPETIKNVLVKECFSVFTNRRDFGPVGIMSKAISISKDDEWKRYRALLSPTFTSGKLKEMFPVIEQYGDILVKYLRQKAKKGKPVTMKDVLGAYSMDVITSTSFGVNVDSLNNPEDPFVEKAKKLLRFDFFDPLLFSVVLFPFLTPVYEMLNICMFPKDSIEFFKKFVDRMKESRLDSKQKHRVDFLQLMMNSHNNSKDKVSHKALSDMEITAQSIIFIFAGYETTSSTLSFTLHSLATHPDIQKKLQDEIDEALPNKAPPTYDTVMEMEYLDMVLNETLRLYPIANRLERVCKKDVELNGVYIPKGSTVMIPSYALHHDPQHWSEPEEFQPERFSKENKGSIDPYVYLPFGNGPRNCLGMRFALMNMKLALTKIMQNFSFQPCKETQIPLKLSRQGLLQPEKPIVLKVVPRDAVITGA
In words: in vitro. The conditions noted are these: CD-1, mouse, microsomes; for IC50 at 7 min: pH 7.4, IC50, CYP3A (BROD), 2 μM 7-benzyloxyresorufin. Here is the method:
as §1, §2, §3, §4

In the next data set the target is T2, CYP3A (Mus musculus, UniProt Q64459).
T2 sequence (Q64459 1-504): T1 sequence (Q64459 1-504)
The experiment in a line: in vitro. The settings on record: 2 or 3 inhibitor concentrations, substrate 0.05 to 8 μM. The procedure: as §1, §2, §3, §4

Setting [2] is: microsomes from high POPs-exposed mice, geometric mean (confidence interval).
The mark [3] stands for this setting: microsomes from low POPs-exposed mice, geometric mean (confidence interval).
Where [4] appears, read: microsomes from unexposed mice, geometric mean (confidence interval).
Where [5] appears, read: pH 7.4, Ki values, BROD activity, range over the unexposed, low- and high-exposed groups.
The mark [6] stands for this setting: pH 7.4, Ki, CYP3A (BROD), microsomes from high POPs-exposed mice, geometric mean (confidence interval).
[7] abbreviates: pH 7.4, Ki, CYP3A (BROD), microsomes from low POPs-exposed mice, geometric mean (confidence interval).
Where [8] appears, read: pH 7.4, Ki, CYP3A (BROD), microsomes from unexposed mice, geometric mean (confidence interval).

The structures appear in SMILES notation.

Consider `O=c1c(O)c(-c2ccc(O)c(O)c2)oc2cc(O)cc(O)c12` [Quercetin, quercetin], for which the values for the IC50 at 5 min in data set [1] (microsomes from high POPs-exposed mice), in data set [1] (microsomes from low POPs-exposed mice) and in data set [1] (microsomes from unexposed mice) were 5.8 µM, 5.1 µM and 5.4 µM, respectively. Besides, the “Mode of inhibition of EROD activity” value in the data set with CYP1A (2 or 3 inhibitor concentrations, substrate 0.005 to 4.0 μM) is recorded as “competitively inhibited”. The Ki (as a rule, the equilibrium dissociation constant of an inhibitor or competing ligand from its target) at 5 min is 1.7 to 2.6 µM with CYP1A (Ki values, EROD activity, range over the unexposed, low- and high-exposed groups); 2.6 µM in the data set with CYP1A (Ki, CYP1A (EROD), microsomes from high POPs-exposed mice, geometric mean (confidence interval)); 2.6 µM in the data set on CYP1A (Ki, CYP1A (EROD), microsomes from low POPs-exposed mice, geometric mean (confidence interval)); 1.7 µM in the data set on CYP1A (Ki, CYP1A (EROD), microsomes from unexposed mice, geometric mean (confidence interval)). Also, the “Inhibition of EROD activity” value with CYP1A is recorded as “strongly inhibited”. Further, the results for the IC50 at 7 min at CYP3A (CYP3A11) (setting [2]), on CYP3A (CYP3A11) (setting [3]) and on CYP3A (CYP3A11) (setting [4]) were 35.7 µM, 27.1 µM and 30.2 µM, respectively. In addition, the Ki at 7 min is 64.9 to 75.3 µM at CYP3A (CYP3A11) (setting [5]), 75.3 µM at CYP3A (CYP3A11) (setting [6]), 64.9 µM at CYP3A (CYP3A11) (setting [7]) and 67.1 µM on CYP3A (CYP3A11) (setting [8]). The “Mode of inhibition of BROD activity” value at CYP3A was “noncompetitively inhibited”.
Turning to `O=C1C[C@@H](c2ccc(O)cc2)Oc2cc(O)cc(O)c21` [Naringenin, naringenin], the “Inhibition of EROD activity” value in the data set on CYP1A is “No inhibition”; with CYP1A (listed as naringenin), “Neither naringenin nor sesamin inhibited”. Moreover, the IC50 (in general, the concentration that inhibits the measured activity by half) at 7 min against CYP3A (CYP3A11) (setting [2]) came to 43.1 µM; against CYP3A (CYP3A11) (setting [3]), 49.1 µM; at CYP3A (CYP3A11) (setting [4]) it was 40.3 µM. Also, the Ki at 7 min is 39.3 to 45.8 µM on CYP3A (CYP3A11) (setting [5]), 39.3 µM on CYP3A (CYP3A11) (setting [6]), 45.8 µM on CYP3A (CYP3A11) (setting [7]) and 42.1 µM on CYP3A (CYP3A11) (setting [8]). The “Mode of inhibition of BROD activity” value at CYP3A is listed as “noncompetitively inhibited”.
